Tests used:
PPARγ = target: T1, PPARγ (Homo sapiens, UniProt P37231); test: In vitro activation of PPARγ (cells containing PPAR, EC50); format: cell-based; conditions: n ≥ 8; 24 h; read-out: EC50 ± SD PPARγ
T1 construct: expressed in transfected cells
T1 sequence (P37231 1-505): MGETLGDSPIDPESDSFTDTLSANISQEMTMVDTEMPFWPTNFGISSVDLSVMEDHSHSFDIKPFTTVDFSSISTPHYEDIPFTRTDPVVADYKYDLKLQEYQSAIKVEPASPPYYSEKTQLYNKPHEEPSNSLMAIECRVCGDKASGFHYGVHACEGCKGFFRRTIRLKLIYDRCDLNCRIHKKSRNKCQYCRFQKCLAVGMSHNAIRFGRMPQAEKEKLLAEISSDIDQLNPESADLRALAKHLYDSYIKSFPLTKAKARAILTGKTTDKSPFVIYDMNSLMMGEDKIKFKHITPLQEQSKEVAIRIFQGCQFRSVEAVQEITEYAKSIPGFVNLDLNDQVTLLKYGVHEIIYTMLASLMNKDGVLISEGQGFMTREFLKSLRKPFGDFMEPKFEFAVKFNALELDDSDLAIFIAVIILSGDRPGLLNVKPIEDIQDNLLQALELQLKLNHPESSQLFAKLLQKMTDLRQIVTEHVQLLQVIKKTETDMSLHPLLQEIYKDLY
Description: According to the literature, the cells containing PPAR (α, β and γ) were obtained and transfected into 96-well plates the day before for cells culture. Transfection was performed according to the instructions of human PPAR enzyme-linked immunoassay. […] After 24 h, the drugs were added, and 20 μl of MTT was added to each well for another 6 h, and the cell liquid was collected by removing the culture medium, and 150 μl of DMSO was added to each hole. And the absorbance value (A) of each hole was measured under the wavelength of 460 nm.

[1] = Lipid–water partition coefficient (log p); format: physicochemical
Description: (§1) Drug in vitro experiment was one of the basic contents to evaluate drugs activity, and it was a necessary approach to research drugs. Drugs’ efficacy was often affected by some physical and chemical properties of compounds, such as lipid–water partition coefficient (log p), and dissociation degree (pKa). […] In Table 1, we could find that target compounds were fat-soluble. The fat-soluble compounds were favourable for drugs absorption, and drugs were easy to enter the cells. […] The pKa will affect the absorption and delivery of the drugs, different environmental (acid and alkalinity) medicine may be different, sometimes exists in the form of ions, sometimes exists in the form of molecules. Usually in the form of ion drugs has no effect. Therefore, it was necessary to study the dissociation degree (pKa) of drugs to study the pharmacodynamics. […] After the physical and chemical properties were studied, the biological activity was studied. […] After that, the target compounds 6a, 6e, 6f, 6g and 6i had good biological activity and were preliminarily screened out for further study on PPARγ receptor agonist activity (Figure 5).

[2] = Dissociation degree (pKa); format: physicochemical
Description: as §1

healthy mice [3] = test: Oral glucose tolerance test; format: in vivo; conditions: for Blood glucose levels 1 h / Blood glucose levels 2 h / Blood glucose levels 0 h: 10 mg kg^−1 d^−1 oral for 10 d; for Blood glucose levels 1 h: 1 h after sugar load; for Blood glucose levels 2 h: 2 h after sugar load; for Blood glucose levels 0 h: fasted 12 h, before sugar load; for Effect in glucose tolerance test (in words): 10 mg kg^−1 d^−1 oral, 10 d
Description: In vivo experiments, glucose tolerance test, insulin tolerance test, cell survival experiment and acute toxicity were used as the test indicators (Tables 2, [3] and [4]). In Table 2, we chose dose 10 mg kg^−1 d^−1 and used oral administration. […] The mice were given the drug for 10 d, blood was collected from the tail vein of the mice before and after the sugar load for 1 h and 2 h, and the blood glucose level of the mice before and after the sugar load was measured by the glucometer.
(§2) (1) Glucose tolerance test: The healthy mice (20 ± 2 g) were selected. After 1 week of acclimation, mice with no body surface damage, good general condition and flexible reaction were selected for the experiment. The test compounds were dissolved with DMSO, and were given a dose volume of 0.2 ml 10 g^−1, and a dose of 10 mg kg^−1, and given by gavage (oral) once a day. […] The mice were given the drug for 10 d, and after the last dose, the mice fasted for 12 h. The next day, blood was collected from the tail vein of the mice before and after the sugar load for 1 h and 2 h, and the blood glucose level of the mice before and after the sugar load was measured by the glucometer. […] The 12 h of fasting after the last administration, blood was taken from the orbital venous plexus (used to measure the blood glucose level after fasting). Each group was immediately given a subcutaneous injection of 0.2 μg kg^−1 of insulin. After 1 h and 2 h of injection, blood was taken again. (3) Cell survival experiment: The HUVEC cells were inoculated on the 96-well plate at the initial concentration of 3 × 10^3 cells/holes, and 100 μl RPMI 1640 medium were added to each hole. At 5% CO2 and 37 °C cell cultivation in 24 h, every pore solution in different concentrations. […] And determine the hole under 460 nm wavelength absorbance value (A).

healthy mice [4] = test: Insulin tolerance test (blood glucose under insulin load); format: in vivo; conditions: for Effect in insulin tolerance test (in words): 10 mg kg^−1 d^−1; for Blood glucose levels 1 h / Blood glucose levels 2 h / Blood glucose levels 0 h: 10 mg kg^−1 d^−1 for 15 d; for Blood glucose levels 1 h: 1 h after s.c. insulin 0.2 μg kg^−1; for Blood glucose levels 2 h: 2 h after s.c. insulin 0.2 μg kg^−1; for Blood glucose levels 0 h: fasted 12 h, before insulin
Description: as §2

HUVEC cells = test: Cell survival experiment (cytotoxicity); format: cell-based; conditions: for Cytotoxic effect (in words): 10^−3–10^−2 mol L^−1; for Cell survival rate: HUVEC cells
Description: as §2

[5] = Acute toxicity test (LD50); format: in vivo; conditions: oral administration; n ≥ 3

Compound: Cc1ccc(C(=O)NCCOc2ccc(CC3SC(=O)NC3=O)nc2)cc1 (stereo not shown) [Compound 6f, N-(2-((6-((2,4-dioxothiazolidin-5-yl)methyl)pyridin-3-yl)oxy)ethyl)-4-methylbenzamide]
- EC50 (PPARγ): 100 ± 100 nM
- logP [1]: 2.56
- pKa [2]: 9.65
- Blood glucose levels 1 h (healthy mice [3]): 6.651 ± 2.413 mmol/L
- Blood glucose levels 2 h (healthy mice [3]): 4.121 ± 1.922 mmol/L
- Blood glucose levels 0 h (healthy mice [3]): 3.216 ± 0.315 mmol/L
- Effect in glucose tolerance test (in words) (healthy mice [3]): good resistance activation to glucose
- Effect in insulin tolerance test (in words) (healthy mice [4]): good resistance activation to insulin
- Blood glucose levels 1 h (healthy mice [4]): 1.903 ± 0.611 mmol/L
- Blood glucose levels 2 h (healthy mice [4]): 2.602 ± 1.143 mmol/L
- Blood glucose levels 0 h (healthy mice [4]): 5.714 ± 1.465 mmol/L
- Cytotoxic effect (in words) (HUVEC cells): no obvious cytotoxic effect
- Cell survival rate (HUVEC cells; 10^−2 mol l^−1): 89.6 ± 1.34%
- Cell survival rate (HUVEC cells; 10^−3 mol l^−1): 98.3 ± 0.45%
- Cell survival rate (HUVEC cells; 10^−4 mol l^−1): 99.2 ± 0.31%
- Cell survival rate (HUVEC cells; 10^−5 mol l^−1): 99.8 ± 0.09%
- Cell survival rate (HUVEC cells; 10^−6 mol l^−1): 100%
- LD50 ± SD [5]: 2013.6 ± 1.43 mg/kg

Compound: CN(CCOc1ccc(CC2SC(=O)NC2=O)cc1)c1ccccn1 (stereo not shown) [Rosiglitazone, reference compound]
- Blood glucose levels 1 h (healthy mice [3]): 6.351 ± 2.004 mmol/L
- Blood glucose levels 2 h (healthy mice [3]): 3.654 ± 1.232 mmol/L
- Blood glucose levels 0 h (healthy mice [3]): 3.265 ± 0.345 mmol/L
- LD50 ± SD [5]: 2246.1 ± 1.56 mg/kg

Compound: O=C1NC(=O)C(Cc2ccc(OCCNC(=O)c3ccc(O)cn3)cc2)S1 (stereo not shown) [Compound 6k, N-(2-(4-((2,4-dioxothiazolidin-5-yl)methyl)phenoxy)ethyl)-5-hydroxypicolinamide]
- EC50 (PPARγ): 210 ± 110 nM
- logP [1]: 2.32
- pKa [2]: 8.66

Compound: O=C1NC(=O)C(Cc2ccc(OCCNC(=O)c3ccc(O)cc3)cc2)S1 (stereo not shown) [Compound 6i, N-(2-(4-((2,4-dioxothiazolidin-5-yl)methyl)phenoxy)ethyl)-4-hydroxybenzamide]
- EC50 (PPARγ): 70 ± 20 nM
- logP [1]: 2.8
- pKa [2]: 9.03
- Blood glucose levels 1 h (healthy mice [3]): 6.401 ± 2.112 mmol/L
- Blood glucose levels 2 h (healthy mice [3]): 3.265 ± 1.236 mmol/L
- Blood glucose levels 0 h (healthy mice [3]): 3.218 ± 0.317 mmol/L
- Effect in glucose tolerance test (in words) (healthy mice [3]): good resistance activation to glucose
- Effect in insulin tolerance test (in words) (healthy mice [4]): good resistance activation to insulin
- Blood glucose levels 1 h (healthy mice [4]): 1.792 ± 0.541 mmol/L
- Blood glucose levels 2 h (healthy mice [4]): 2.501 ± 1.025 mmol/L
- Blood glucose levels 0 h (healthy mice [4]): 5.592 ± 1.134 mmol/L
- Cytotoxic effect (in words) (HUVEC cells): no obvious cytotoxic effect
- Cell survival rate (HUVEC cells; 10^−2 mol l^−1): 92.1 ± 1.43%
- Cell survival rate (HUVEC cells; 10^−3 mol l^−1): 98.8 ± 0.29%
- Cell survival rate (HUVEC cells; 10^−4 mol l^−1): 99.9 ± 0.02%
- Cell survival rate (HUVEC cells; 10^−5 mol l^−1): 100%
- Cell survival rate (HUVEC cells; 10^−6 mol l^−1): 100%
- LD50 ± SD [5]: 2268.9 ± 1.25 mg/kg

Reference: PMC6522930, “Design, synthesis and biological activity evaluation of a new class of 2,4-thiazolidinedione compounds as insulin enhancers” (Journal of Enzyme Inhibition and Medicinal Chemistry, 2019)
